Measurements taken from US8088918B2, “Noncardiotoxic pharmaceutical compounds” (Williamsburg Holdings LLC, priority 2004, dated 2012).

Experiments:
[1] = parent drugs; cited from earlier work
[2] = Metabolic stability, microsomal incubations without inhibitor; type: in vitro ADME; conditions: 10 μM, 0.5 mg/mL microsomal protein
Method: (§1) The metabolic stability of each compound prepared in Examples 1-5 was assessed in microsomal preparations obtained from BD Gentest (Woburn, Mass.).
(§2) The metabolic stability of each compound prepared in Examples 1-5 was assessed in duplicate by incubation of 10 μM compound with 0.5 mg/mL microsomal protein, 1 mM in 0.1 M phosphate buffer, pH 7.4 in the presence and absence of a CYP3A4 inhibitor (ketoconazole). The reaction mixture was pre-incubated, in the absence of the microsomes, at ca. 37° C. for 5 minutes, followed by initiation of the incubation by the addition of microsomal protein and maintained at ca. 37° C. for a further 0, 30 and 60 minutes. After the appropriate incubation time, the mixtures were quenched by the addition of one volume of acetonitrile and the supernatant was isolated by centrifugation. Positive control incubations (7-ethoxycoumarin) were performed in the same manner as the compounds from Examples 1-5 and quenched after 0 and 30 minutes. In addition, negative control incubations were performed for 60 minutes in the absence of NADPH to assess chemical stability.
(§3) Analysis of supernatants from each time interval was conducted for each compound prepared in Examples 1-5 by LC-MS analysis. Quantification of the disappearance on the parent drug was achieved by comparison of the sample response to that of a suitable standard curve constructed in 0.1 M phosphate buffer, pH 7.4. The standard curve ranged between ≦1% up to ≧100% of the dosing concentration.
(§4) The % turnover following 60 minutes of incubation was calculated by comparison of the parent concentration to that at 0 minutes. The % degradation was calculated in the same manner from the negative control incubations. Appearance of the parent drug and the hydroxymetabolites were also monitored at each time interval.

CYP2D6 = CYP2D6 (Homo sapiens, UniProt P10635); assay: Metabolic stability in the presence of CYP2D6 isozyme; type: in vitro ADME; parameters: purchased BD Gentest (Woburn, Mass.); conditions: 10 μm compound
Method: (§5) The metabolic stability of each compound prepared in Examples 1-5 was assessed in the presence of CYP2D6 and CYP3A4 obtained from BD Gentest (Woburn, Mass.).
(§6) The metabolic stability of each compound prepared in Examples 1-5 was assessed in duplicate by incubation of 10 μm compound with recombinant human CYP2D6 and 3A4 using similar conditions to those in Example 9. Samples were removed for analysis at 0, 30 and 60 minutes and extracted with one volume of organic solvent. Appropriate controls were included. Quantification of the disappearance of the prodrug was conducted LC-MS. Appearance of metabolites was also monitored.

[3] = Stability testing of prodrugs in human plasma; type: in vitro ADME; conditions: 10 μM, ca. 37° C.
Method: (§7) Pooled human plasma was obtained from Bioreclamation (East Meadow, N.Y.) by collection into sodium EDTA as the anticoagulant, and was stored at ca −20° C. prior to use. Prior to use, the plasma defrosted and was spun at ca. 3000 rpm for 5 minutes to remove any precipitate. The pH of the plasma was adjusted to pH 7.4 by careful addition of NaH2PO4 buffer.
(§8) Plasma stability was assessed by incubation of 10 μM of each compound prepared in Examples 1-5 with human plasma, in duplicate, at ca. 37° C. with shaking. Each compound prepared in Examples 1-5 was also incubated at 10 μM in PBS as a control for compound heat stability. Aliquots were removed at 0, 0.5, 1 and 2 hours and stored at −20° C. until analysis.
(§9) For analysis, plasma samples were extracted in 1 part acetonitrile and isolation of the supernatant. Analysis of each compound prepared in Examples 1-5 in plasma extracts was conducted by an LC-MS method at each time interval and quantification was achieved by comparison of the response due to the sample to that of a three point standard curve. Appearance of the parent drug the hydroxymetabolites were also monitored at each time interval. The % degradation following incubation at each time point was calculated by comparison of the parent concentration to that at 0 minutes.

[4] = Stability testing of prodrugs in rat plasma (elevated esterase activity); type: in vitro ADME, Sprague-Dawley rat; conditions: 10 μM, ca. 37° C.
Method: as §7, with “Sprague-Dawley rat” for “Pooled human”, “obtained” for “obtained from Bioreclamation (East Meadow, N.Y.)”
as §8, with “rat” for “human”
as §9, with “drug and” for “drug”

[5] = Stability testing in simulated intestinal fluids; conditions: 10 μM
recombinant human CYP3A4 = target: T1, recombinant human CYP3A4 (Homo sapiens, UniProt P08684); assay: Metabolic stability in the presence of CYP3A4 isozyme; type: in vitro ADME; conditions: 10 μm compound
T1 construct: purchased BD Gentest (Woburn, Mass.)
Method: as §5, §6

[6] = Metabolic stability, microsomal incubations with ketoconazole (CYP3A4 inhibitor); type: in vitro ADME; conditions: 10 μM, 0.5 mg/mL microsomal protein
Method: as §1, §2, §3, §4

[7] = Stability testing in simulated gastric fluids; conditions: 10 μM, saline pH approximately 1 plus pepsin

Sequence of CYP2D6 (P10635 whole entry): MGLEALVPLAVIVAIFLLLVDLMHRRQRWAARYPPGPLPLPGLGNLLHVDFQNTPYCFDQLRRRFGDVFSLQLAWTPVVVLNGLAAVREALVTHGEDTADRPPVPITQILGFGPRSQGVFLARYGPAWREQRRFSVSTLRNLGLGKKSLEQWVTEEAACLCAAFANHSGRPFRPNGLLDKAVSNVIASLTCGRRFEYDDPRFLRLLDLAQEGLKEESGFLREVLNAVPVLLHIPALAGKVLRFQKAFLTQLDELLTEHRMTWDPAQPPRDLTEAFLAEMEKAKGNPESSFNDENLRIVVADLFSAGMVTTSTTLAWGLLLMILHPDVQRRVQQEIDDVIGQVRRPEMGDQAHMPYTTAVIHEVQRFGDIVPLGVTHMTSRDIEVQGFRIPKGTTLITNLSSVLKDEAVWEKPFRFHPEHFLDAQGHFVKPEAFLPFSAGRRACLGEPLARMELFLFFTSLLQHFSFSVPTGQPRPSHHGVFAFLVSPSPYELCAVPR
T1 sequence (P08684 whole entry): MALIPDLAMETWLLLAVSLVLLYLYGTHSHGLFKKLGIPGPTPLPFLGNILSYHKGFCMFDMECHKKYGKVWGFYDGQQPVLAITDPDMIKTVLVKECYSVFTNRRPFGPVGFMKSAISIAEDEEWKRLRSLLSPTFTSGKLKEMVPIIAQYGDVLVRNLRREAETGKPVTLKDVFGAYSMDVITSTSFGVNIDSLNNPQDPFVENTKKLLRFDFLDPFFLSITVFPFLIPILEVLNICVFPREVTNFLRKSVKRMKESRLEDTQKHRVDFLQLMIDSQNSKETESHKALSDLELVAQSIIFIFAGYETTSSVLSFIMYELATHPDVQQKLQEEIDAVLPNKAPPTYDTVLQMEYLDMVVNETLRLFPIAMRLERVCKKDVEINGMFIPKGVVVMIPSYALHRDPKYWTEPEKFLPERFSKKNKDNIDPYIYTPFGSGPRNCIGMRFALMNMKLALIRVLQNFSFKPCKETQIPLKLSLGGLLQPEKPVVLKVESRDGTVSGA

Q: Which pKa [1] does the source give for `CN(C)CCC=C1c2ccccc2COc2ccccc21` (mixture of isomers) [doxepin, Doxepin] here?
A: 8.00

Q: Which “Loss of parent compound with no ketoconazole (%)” value ([2]; incubation time 30 min) does the source give for `CCOP(=O)(OCC)N(C)CCCN1c2ccccc2CCc2ccccc21` [RIC-02, [3-(10,11-Dihydro-dibenzo[b,f]azepin-5-yl)-propyl]-methyl-phosphoramidic acid diethyl ester] here?
A: 76.17%

Q: And the “Loss of parent compound with no ketoconazole (%)” value ([2]; incubation time 60 min)?
A: 91.40%

Q: What about the “Loss of parent compound with CYP2D6 isozyme (%)” value (“Loss … with CYP2D6 isozyme (%)” for short) (CYP2D6; incubation time 0 min) of the same compound?
A: 0.00%

Q: And the “Loss … with CYP2D6 isozyme (%)” value (CYP2D6; incubation time 30 min)?
A: 13.19%

Q: What about the “Loss … with CYP2D6 isozyme (%)” value (CYP2D6; incubation time 60 min) of the same compound?
A: 37.11%

Q: What about the “Loss of parent compound in human plasma (%)” value (“Loss … in human plasma (%)” for short) ([3]; incubation time 0 min) of the same compound?
A: 0.00%

Q: And the “Loss … in human plasma (%)” value ([3]; incubation time 30 min)?
A: −.43%

Q: What about the “Loss … in human plasma (%)” value ([3]; incubation time 60 min) of the same compound?
A: 9.94%

Q: What about the “Loss … in human plasma (%)” value ([3]; incubation time 120 min) of the same compound?
A: 7.93%

Q: What about the “Loss of parent compound in rat plasma (%)” value (shortened to “Loss … in rat plasma (%)”) ([4]; incubation time 0 min) of the same compound?
A: 0.00%

Q: What about the “Loss … in rat plasma (%)” value ([4]; incubation time 30 min) of the same compound?
A: 4.67%

Q: What about the “Loss … in rat plasma (%)” value ([4]; incubation time 60 min) of the same compound?
A: 11.01%

Q: What about the “Loss … in rat plasma (%)” value ([4]; incubation time 120 min) of the same compound?
A: 9.02%

Q: And the “Loss of parent compound in simulated intestinal fluid (%)” value ([5]; phosphate pH 6, incubation time 0 min)?
A: 0.00%

Q: And the “Loss of parent compound in simulated intestinal fluid (%)” value ([5]; phosphate pH 6, incubation time 30 min)?
A: 11.65%

Q: And the “Loss of parent compound in simulated intestinal fluid (%)” value ([5]; phosphate pH 6, incubation time 60 min)?
A: 7.83%

Q: What about the “Loss of parent compound in simulated intestinal fluid (%)” value ([5]; phosphate pH 6, incubation time 120 min) of the same compound?
A: 9.29%

Q: And the “Loss of parent compound with CYP3A4 isozyme (%)” value (from here on “Loss … with CYP3A4 isozyme (%)”) (recombinant human CYP3A4; incubation time 0 min)?
A: 0.00%

Q: What about the “Loss … with CYP3A4 isozyme (%)” value (recombinant human CYP3A4; incubation time 30 min) of the same compound?
A: 97.05%

Q: And the “Loss … with CYP3A4 isozyme (%)” value (recombinant human CYP3A4; incubation time 60 min)?
A: 98.62%

Q: And the “Loss of parent compound with ketoconazole (%)” value ([6]; incubation time 30 min)?
A: −17.26%

Q: What about the “Loss of parent compound with ketoconazole (%)” value ([6]; incubation time 60 min) of the same compound?
A: 11.04%

Q: What about the “Loss of parent compound in simulated gastric fluid (%)” value (“Loss … in simulated gastric fluid (%)” for short) ([7]; incubation time 0 min) of the same compound?
A: 0.00%

Q: And the “Loss … in simulated gastric fluid (%)” value ([7]; incubation time 30 min)?
A: 49.94%

Q: And the “Loss … in simulated gastric fluid (%)” value ([7]; incubation time 60 min)?
A: 74.67%

Q: What about the “Loss … in simulated gastric fluid (%)” value ([7]; incubation time 120 min) of the same compound?
A: 93.12%

Q: With `CN(C)CCc1c[nH]c2ccc(C[C@H]3COC(=O)N3)cc12` [Zolmitriptan] as the compound, how does the pKa [1] read?
A: 9.52

Q: Which pKa [1] does the source give for `CNCCC(Oc1ccccc1C)c1ccccc1` (stereo not drawn) [atomoxetine, Atomoxetine] here?
A: 10.12

Q: Which pKa [1] does the source give for `CN(C)CCOC(C)(c1ccccc1)c1ccc(Cl)cc1` (stereo not drawn) [chlorphenoxamine, Chlorphenoxamine] here?
A: 8.21

Q: With `COc1cc(N)c(Cl)cc1C(=O)NC1CCN(CCCOc2ccc(F)cc2)CC1OC` (stereo not drawn) [cisapride, Cisapride] as the compound, how does the pKa [1] read?
A: 7.04

Q: For `CN1CCC[C@@H]1CCO[C@](C)(c1ccccc1)c1ccc(Cl)cc1` [clemastine], which pKa [1] is on record?
A: 10.23

Q: Which pKa [1] does the source give for `CN(C)CCCN1c2ccccc2CCc2ccc(Cl)cc21` [clomipramine] here?
A: 9.50

Q: For `CN1CCN(C2=Nc3cc(Cl)ccc3Nc3ccccc32)CC1` [clozapine, Clozapine], which pKa [1] is on record?
A: 8.20

Q: With `CN1CCN(C(c2ccccc2)c2ccccc2)CC1` [cyclizine] as the compound, how does the pKa [1] read?
A: 8.35

Q: With `CN(C)CCC=C1c2ccccc2C=Cc2ccccc21` [cyclobenzaprine, Cyclobenzaprine] as the compound, how does the pKa [1] read?
A: 9.21

Q: Which pKa [1] does the source give for `CN1CCC[C@@H]1Cc1c[nH]c2ccc(CCS(=O)(=O)c3ccccc3)cc12` [eletriptan, Eletriptan] here?
A: 10.13

Q: For `CN(C)CCC[C@@]1(c2ccc(F)cc2)OCc2cc(C#N)ccc21` [escitalopram, Escitalopram], which pKa [1] is on record?
A: 9.60

Q: With `COc1ccc(OCC2CN(C)CCC2c2ccccc2)cc1` (stereo not drawn) [femoxetine, Femoxetine] as the compound, how does the pKa [1] read?
A: 9.00

Q: Which pKa [1] does the source give for `CN[C@@H]1CCc2[nH]c3ccc(C(N)=O)cc3c2C1` [frovatriptan, Frovatriptan] here?
A: 10.63

Q: Which pKa [1] does the source give for `CNCCCC12CCC(c3ccccc31)c1ccccc12` [maprotiline] here?
A: 10.20

Q: With `Cc1cccc(CN2CCN(C(c3ccccc3)c3ccc(Cl)cc3)CC2)c1` (stereo not drawn) [meclizine] as the compound, how does the pKa [1] read?
A: 7.32

Q: Which pKa [1] does the source give for `COc1c(N2C[C@@H]3CCCN[C@@H]3C2)c(F)cc2c(=O)c(C(=O)O)cn(C3CC3)c12` [moxifloxacin] here?
A: 10.01

Q: For `CCc1nn(CCCN2CCN(c3cccc(Cl)c3)CC2)c(=O)n1CCOc1ccccc1` [nefazodone], which pKa [1] is on record?
A: 7.90

Q: For `COc1cc(N)c(Cl)cc1C(=O)NC1CCNCC1OC` (stereo not drawn) [norcisapride], which pKa [1] is on record?
A: 8.46

Q: With `Fc1ccc(-n2cc(C3CCNCC3)c3cc(Cl)ccc32)cc1` [norsertindole] as the compound, how does the pKa [1] read?
A: 10.61

Q: Which pKa [1] does the source give for `CC1COc2c(N3CCN(C)CC3)c(F)cc3c(=O)c(C(=O)O)cn1c23` (stereo not drawn) [ofloxacin] here?
A: 7.09

Q: Which pKa [1] does the source give for `O=C1NC(=O)C(c2ccccc2)(c2ccccc2)N1` [phenytoin] here?
A: 8.31

Q: Which pKa [1] does the source give for `CC(N)C12CC3CC(CC(C3)C1)C2` (stereo not drawn) [rimantadine] here?
A: 11.70

Q: For `CN(C)CCc1c[nH]c2ccc(Cn3cncn3)cc12` [rizatriptan], which pKa [1] is on record?
A: 9.49

Q: Which pKa [1] does the source give for `O=C1NCCN1CCN1CCC(c2cn(-c3ccc(F)cc3)c3ccc(Cl)cc23)CC1` [sertindole, Sertindole] here?
A: 9.06

Q: Which pKa [1] does the source give for `CC(C)(C)c1ccc(C(O)CCCN2CCC(C(O)(c3ccccc3)c3ccccc3)CC2)cc1` (stereo not drawn) [terfenadine, Terfenadine] here?
A: 9.60

Q: With `CN1CCN(CCCN2c3ccccc3Sc3ccc(C(F)(F)F)cc32)CC1` [trifluoperazine] as the compound, how does the pKa [1] read?
A: 7.98

Q: Which pKa [1] does the source give for `O=C1Cc2cc(CCN3CCN(c4nsc5ccccc45)CC3)c(Cl)cc2N1` [ziprasidone] here?
A: 8.24
